In paper PMC11822212, “High-throughput screening identifies Aurora kinase B as a critical therapeutic target for Merkel cell carcinoma” (Nature Communications, 2025):
“And” between values parts separate entries of the source, which are not always exact repeats. Identical values can stand only once. Like-named read-outs stand apart in the source and are kept apart here.

Assays:
Experiment in all cases: qHTS cell viability (CellTiter-Glo, 72 h; primary and follow-up small molecule screen)
Type in all cases: cell-based, human
[1] = test system: MKL-1 cells (VP-MCC)
[2] = test system: MCC13 cells (VN-MCC)
[3] = test system: MCC26 cells (VN-MCC)
[4] = test system: UISO cells (VN-MCC)
[5] = test system: WAGA cells (VP-MCC)
[6] = test system: MKL-2 cells (VP-MCC)
[7] = follow-up screen, MKL-1, replicate 1
[8] = follow-up screen, MKL-1, replicate 2
[9] = follow-up screen, MKL-1, replicate 3
[10] = follow-up screen, MCC13, replicate 1
[11] = follow-up screen, MCC13, replicate 2
[12] = follow-up screen, MCC13, replicate 3
[13] = follow-up screen, MCC26, replicate 1
[14] = follow-up screen, MCC26, replicate 2
[15] = follow-up screen, MCC26, replicate 3
[16] = follow-up screen, UISO, replicate 1
[17] = follow-up screen, UISO, replicate 2
[18] = follow-up screen, UISO, replicate 3
[19] = follow-up screen, WAGA, replicate 1
[20] = follow-up screen, WAGA, replicate 2
[21] = follow-up screen, WAGA, replicate 3
[22] = follow-up screen, MKL-2, replicate 1
[23] = follow-up screen, MKL-2, replicate 2
[24] = follow-up screen, MKL-2, replicate 3

SMILES | Area under the dose-response curve (AUC) MKL-1 Replicate 1 [1, 7] | Area under the dose-response curve (AUC) MKL-1 Replicate 2 [1, 8] | Area under the dose-response curve (AUC) MKL-1 Replicate 3 [1, 9] | Area under the dose-response curve (AUC) MCC13 Replicate 1 [2, 10] | Area under the dose-response curve (AUC) MCC13 Replicate 2 [2, 11] | Area under the dose-response curve (AUC) MCC13 Replicate 3 [2, 12] | Area under the dose-response curve (AUC) MCC26 Replicate 1 [3, 13] | Area under the dose-response curve (AUC) MCC26 Replicate 2 [3, 14] | Area under the dose-response curve (AUC) MCC26 Replicate 3 [3, 15] | Area under the dose-response curve (AUC) UISO Replicate 1 [4, 16] | Area under the dose-response curve (AUC) UISO Replicate 2 [4, 17] | Area under the dose-response curve (AUC) UISO Replicate 3 [4, 18] | Area under the dose-response curve (AUC) WAGA Replicate 1 [5, 19] | Area under the dose-response curve (AUC) WAGA Replicate 2 [5, 20] | Area under the dose-response curve (AUC) WAGA Replicate 3 [5, 21] | Area under the dose-response curve (AUC) MKL-2 Replicate 1 [6, 22] | Area under the dose-response curve (AUC) MKL-2 Replicate 2 [6, 23] | Area under the dose-response curve (AUC) MKL-2 Replicate 3 [6, 24] | other results
C[C@@H]1O[C@@H](O[C@H]2C[C@@H](O)[C@]3(CO)[C@H]4[C@H](O)C[C@]5(C)[C@@H](C6=CC(=O)OC6)CC[C@]5(O)[C@@H]4CC[C@]3(O)C2)[C@H](O)[C@H](O)[C@H]1O [G-Strophanthin] | 297.3 | 274.0 | 262.6 | 250.1 | 222.2 | 219.6 | 280.5 | 322.9 | 231.8 | 241.1 | 235.2 | 205.5 | 307.5 | 286.8 | 292.2 | 279.7 | 288.8 | 290.5 | –
O=c1c(O)c(-c2ccccc2)oc2cc(O)cc(O)c12 [GALANGIN] | 418.0 | 452.0 | 473.1 | 501.1 | 489.1 | 476.8 | 408.8 | 418.1 | 468.3 | 448.5 | 479.0 | 418.3 | 517.0 | 423.5 | 495.5 | 358.3 | 486.3 | 480.7 | –
CC(C)=CCC[C@]1(C)C=Cc2c(O)c3c(c(CC=C(C)C)c2O1)O[C@]12C(=C[C@@H]4C[C@H]1C(C)(C)O[C@@]2(C/C=C(/C)C(=O)O)C4=O)C3=O [GAMBOGIC ACID] | 308.8 | 334.5 | 328.9 | 387.5 | 370.7 | 367.8 | 329.0 | 325.1 | 343.3 | 286.6 | 299.4 | 341.5 | 304.1 | 265.2 | 369.1 | 279.3 | 285.4 | 317.0 | –
O=C(/C=C/c1ccc(/C=C/C(=O)Nc2ccc(C3=NCCN3)cc2)cc1)Nc1ccc(C2=NCCN2)cc1 [GW 4869] | – | – | – | – | – | – | – | – | – | – | – | – | – | – | – | – | – | – | Area under the dose-response curve (AUC) MKL-1 Replicate 1 [1]: 478.1; Area under the dose-response curve (AUC) MKL-1 Replicate 2 [1]: 455.5; Area under the dose-response curve (AUC) MKL-1 Replicate 3 [1]: 501.6; Area under the dose-response curve (AUC) MCC13 Replicate 1 [2]: 485.4; Area under the dose-response curve (AUC) MCC13 Replicate 2 [2]: 474.1; Area under the dose-response curve (AUC) MCC13 Replicate 3 [2]: 483.0; Area under the dose-response curve (AUC) MCC26 Replicate 1 [3]: 426.9; Area under the dose-response curve (AUC) MCC26 Replicate 2 [3]: 422.1; Area under the dose-response curve (AUC) MCC26 Replicate 3 [3]: 445.3; Area under the dose-response curve (AUC) UISO Replicate 1 [4]: 438.7; Area under the dose-response curve (AUC) UISO Replicate 2 [4]: 454.7; Area under the dose-response curve (AUC) UISO Replicate 3 [4]: 432.9; Area under the dose-response curve (AUC) WAGA Replicate 1 [5]: 473.9; Area under the dose-response curve (AUC) WAGA Replicate 2 [5]: 513.7; Area under the dose-response curve (AUC) WAGA Replicate 3 [5]: 487.4; Area under the dose-response curve (AUC) MKL-2 Replicate 1 [6]: 446.9; Area under the dose-response curve (AUC) MKL-2 Replicate 2 [6]: 473.7; Area under the dose-response curve (AUC) MKL-2 Replicate 3 [6]: 455.4
CCC(=O)NC[C@H](Cc1ccc(OCCc2nc(-c3ccccc3)oc2C)cc1)N/C(C)=C\C(=O)c1ccc(C(F)(F)F)cc1 [GW-6471] | – | – | – | – | – | – | – | – | – | – | – | – | – | – | – | – | – | – | Area under the dose-response curve (AUC) MKL-1 Replicate 1 [1]: 475.3; Area under the dose-response curve (AUC) MKL-1 Replicate 2 [1]: 443.7; Area under the dose-response curve (AUC) MKL-1 Replicate 3 [1]: 500.6; Area under the dose-response curve (AUC) MCC13 Replicate 1 [2]: 508.4; Area under the dose-response curve (AUC) MCC13 Replicate 2 [2]: 489.8; Area under the dose-response curve (AUC) MCC13 Replicate 3 [2]: 459.0; Area under the dose-response curve (AUC) MCC26 Replicate 1 [3]: 466.5; Area under the dose-response curve (AUC) MCC26 Replicate 2 [3]: 438.7; Area under the dose-response curve (AUC) MCC26 Replicate 3 [3]: 475.7; Area under the dose-response curve (AUC) UISO Replicate 1 [4]: 430.2; Area under the dose-response curve (AUC) UISO Replicate 2 [4]: 426.3; Area under the dose-response curve (AUC) UISO Replicate 3 [4]: 403.1; Area under the dose-response curve (AUC) WAGA Replicate 1 [5]: 517.9; Area under the dose-response curve (AUC) WAGA Replicate 2 [5]: 512.0; Area under the dose-response curve (AUC) WAGA Replicate 3 [5]: 484.1; Area under the dose-response curve (AUC) MKL-2 Replicate 1 [6]: 432.8; Area under the dose-response curve (AUC) MKL-2 Replicate 2 [6]: 489.1; Area under the dose-response curve (AUC) MKL-2 Replicate 3 [6]: 475.3
O=c1c(O)c(-c2ccccc2)oc2cc(O)cc(O)c12 [Galangin] | 490.3 | 490.8 | 492.0 | 503.7 | 491.8 | 491.4 | 449.4 | 457.3 | 461.1 | 481.0 | 489.8 | 457.6 | 519.0 | 499.5 | 488.3 | 477.3 | 508.2 | 500.6 | –
CCOC(=O)c1cnc2ccc(-c3cncc(NS(=O)(=O)c4ccccc4)c3)cn12 [HS-173] | – | – | – | – | – | – | – | – | – | – | – | – | – | – | – | – | – | – | Area under the dose-response curve (AUC) [1]: 400.2 and 402.4 and 398.2; Area under the dose-response curve (AUC) [2]: 410.4 and 416.6 and 423.4; Area under the dose-response curve (AUC) [3]: 371.1 and 368.1 and 383.3; Area under the dose-response curve (AUC) [4]: 373.6 and 378.4 and 376.1; Area under the dose-response curve (AUC) [5]: 390.4 and 391.0 and 384.0; Area under the dose-response curve (AUC) [6]: 425.2 and 393.3 and 372.1
